Measurements taken from US20230346779A1, “DOSAGE FORM COMPOSITIONS COMPRISING AN INHIBITOR OF BTK AND MUTANTS THEREOF” (Newave Pharmaceutical Inc., priority 2020, published 2023).

Tests used:
[1] = Solubility of free base in buffers of varying pH; assay type: physicochemical
Protocol: The solubility of a typical API (i.e., Compound 2 as disclosed herein) in free base form was evaluated in buffers of varying pH.

[2] = Stability of HCl salt at different temperatures for 8 hours; assay type: physicochemical
Protocol: The stability of a Compound 2 HCl salt at different temperatures for 8 hours is shown below. The initial purity at TO is 96.5%. […] Similar observation was also made for several other compounds of the invention.

Ave. Conc. ([1]; 0.01N HCl) [mg/mL] | Ave. Conc. ([1]; Water) [mg/mL] | Ave. Conc. ([1]; pH 2.0) [mg/mL] | Ave. Conc. ([1]; pH 3.0) [mg/mL] | Ave. Conc. ([1]; pH 4.5) [mg/mL] | Ave. Conc. ([1]; pH 6.8) [mg/mL] | Purity (%) at 8 h ([2]; 50° C., 8 hours) [%] | Purity (%) at 8 h ([2]; 80° C., 8 hours) [%] | Purity (%) at 8 h ([2]; 100° C., 8 hours) [%] | stability assessment of HCl salt ([2]; different temperatures, 8 hours) | initial purity ([2]; stability study, at TO (start)) [%] | Structure (SMILES)
55.52 | 0.09 | 9.67 | 2.07 | 1.81 | 0.02 | – | – | – | – | – | C=CC(=O)Nc1cc(Nc2nc(-c3ccnc(N4CCn5c(cc6c5CC(C)(C)C6)C4=O)c3CO)cn(C)c2=O)ccc1N1CCN(C2CCOCC2)C[C@@H]1C [Compound 2, N-(5-[[6-(2-[4,4-dimethyl-9-oxo-1,10-diazatricyclo[6.4.0.0^[2,6]]dodeca-2(6),7-dien-10-yl]-3-(hydroxymethyl)pyridin-4-yl)-4-methyl-3-oxopyrazin-2-yl]amino]-2-[(2S)-2-methyl-4-(oxan-4-yl)piperazin-1-yl]phenyl)prop-2-enamide]
– | – | – | – | – | – | 95.7 | 90.1 | 84.7 | not sufficiently stable | 96.5 | C=CC(=O)Nc1cc(Nc2nc(-c3ccnc(N4CCn5c(cc6c5CC(C)(C)C6)C4=O)c3CO)cn(C)c2=O)ccc1N1CCN(C2CCOCC2)C[C@@H]1C.Cl [Compound-2 HCl, N-(5-[[6-(2-[4,4-dimethyl-9-oxo-1,10-diazatricyclo[6.4.0.0^[2,6]]dodeca-2(6),7-dien-10-yl]-3-(hydroxymethyl)pyridin-4-yl)-4-methyl-3-oxopyrazin-2-yl]amino]-2-[(2S)-2-methyl-4-(oxan-4-yl)piperazin-1-yl]phenyl)prop-2-enamide hydrochloride]
